Source: patent US20100311714A1, “1H-IMIDAZO[4,5-c]QUINOLINONE COMPOUNDS” (priority 2009, published 2010)

Columns and labels:
[1] = target: T1, mTOR (Homo sapiens, UniProt P42345); experiment: Biochemical assay for m-TOR by TR-FRET; details: read-out: EPK_mTOR/IC50
T1 construct: purchased Invitrogen Corporation (Carlsbad/Calif., USA) PV4753
Procedure, shortened: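 mTOR (0.5 nM) phosphorylates GFP-4EBP1 (400 nM) with 8 μM ATP at rt in 50 mM HEPES pH 7.5, 10 mM MnCl2, 50 mM NaCl, 1 mM EGTA, 1 mM DTT; compounds 0.003–10 μM final. EDTA stop with Tb-anti-p4EBP1[pT46] antibody (0.5 nM); TR-FRET read after 15 min against no-enzyme and vehicle controls.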

[2] = test system: PKB Ser473 phosphorylation in Rat1-myr-HA-p110 alpha cells; experiment: Reverse protein array, PKB Ser473 phosphorylation in Rat1-myr-HA-p110 alpha cells; type: cell-based; details: Rattus norvegicus, 0.5 h, 30 minutes compound incubation, read-out: p-PKB/IC50_alpha
[3] = test system: PKB Ser473 phosphorylation in Rat1-myr-HA-p110 beta cells; experiment: Reverse protein array, PKB Ser473 phosphorylation in Rat1-myr-HA-p110 beta cells; type: cell-based; details: Rattus norvegicus, 0.5 h, 30 minutes compound incubation, read-out: p-PKB/IC50_beta

T1 sequence (P42345 1360-2549 limits assumed): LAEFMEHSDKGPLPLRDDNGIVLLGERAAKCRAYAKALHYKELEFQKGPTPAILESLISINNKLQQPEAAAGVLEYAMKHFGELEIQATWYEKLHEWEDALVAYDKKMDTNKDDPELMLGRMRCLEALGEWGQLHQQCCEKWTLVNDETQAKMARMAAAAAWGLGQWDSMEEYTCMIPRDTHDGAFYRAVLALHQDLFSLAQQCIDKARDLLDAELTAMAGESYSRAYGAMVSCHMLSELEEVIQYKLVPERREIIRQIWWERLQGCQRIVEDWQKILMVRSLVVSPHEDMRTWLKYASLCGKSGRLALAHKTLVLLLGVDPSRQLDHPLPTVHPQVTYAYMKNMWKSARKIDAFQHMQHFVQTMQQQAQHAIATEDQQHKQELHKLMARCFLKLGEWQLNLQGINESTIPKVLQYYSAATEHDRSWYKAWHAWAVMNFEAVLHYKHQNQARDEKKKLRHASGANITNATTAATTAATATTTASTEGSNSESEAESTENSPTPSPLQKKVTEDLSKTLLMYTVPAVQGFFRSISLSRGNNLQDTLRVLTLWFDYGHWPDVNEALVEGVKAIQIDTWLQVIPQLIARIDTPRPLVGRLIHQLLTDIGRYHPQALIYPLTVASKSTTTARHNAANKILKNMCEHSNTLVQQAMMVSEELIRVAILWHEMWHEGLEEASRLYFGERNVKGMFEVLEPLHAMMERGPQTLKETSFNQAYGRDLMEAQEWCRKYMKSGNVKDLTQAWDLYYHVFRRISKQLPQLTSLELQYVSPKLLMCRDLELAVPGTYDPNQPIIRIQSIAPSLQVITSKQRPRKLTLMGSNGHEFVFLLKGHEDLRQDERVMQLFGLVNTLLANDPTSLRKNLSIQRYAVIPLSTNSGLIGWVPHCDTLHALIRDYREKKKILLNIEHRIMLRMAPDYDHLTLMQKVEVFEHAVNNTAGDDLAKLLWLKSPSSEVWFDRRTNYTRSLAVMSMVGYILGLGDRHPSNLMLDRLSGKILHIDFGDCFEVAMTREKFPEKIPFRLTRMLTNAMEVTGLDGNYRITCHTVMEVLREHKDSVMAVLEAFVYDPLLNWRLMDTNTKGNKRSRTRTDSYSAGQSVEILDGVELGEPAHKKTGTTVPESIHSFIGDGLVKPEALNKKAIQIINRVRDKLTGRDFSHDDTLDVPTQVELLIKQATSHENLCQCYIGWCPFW

IC50 [1]: 45 nM
IC50 [2]: 4.6 nM
IC50 [3]: 5.27 nM
Structure (SMILES): CCNc1cc(-c2ccc3ncc4c(c3c2)n(-c2ccc(N3CC(F)(F)C(F)(F)C3)nc2C)c(=O)n4C)cnc1CO [Example 35.2, 8-(5-Ethylamino-6-hydroxymethyl-pyridin-3-yl)-3-methyl-1-[2-methyl-6-(3,3,4,4-tetrafluoro-pyrrolidin-1-yl)-pyridin-3-yl]-1,3-dihydro-imidazo[4,5-c]quinolin-2-one]
